Measurements taken from PubChem BioAssay (NCI).
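Dose response: 5 concentrations. Exposure: 48 h. Format: 96-well plates. Endpoint: linear interpolation; highest concentration if not reached. At the GI50, growth is halved. TGI is the concentration that stops growth completely.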

How the values were obtained:
Test in all cases: NCI tumour cell line growth inhibition, 48 h
[1] = system: HOP-92 NSCLC
[2] = system: MALME-3M melanoma
[3] = system: NCI-H23 lung
[4] = system: NCI-H460 lung
[5] = system: NCI-H522 lung
[6] = system: SK-OV-3 ovarian
[7] = system: HCC-2998 colon
[8] = system: HOP-62 NSCLC
[9] = system: HS 578T breast
[10] = system: K-562 leukemia
[11] = system: RPMI-8226 leukemia
[12] = system: 786-0 renal

SMILES | GI50 [1] [µM] | TGI [1] [µM] | GI50 [2] [µM] | TGI [2] [µM] | GI50 [3] [µM] | TGI [3] [µM] | GI50 [4] [µM] | TGI [4] [µM] | GI50 [5] [µM] | TGI [5] [µM] | GI50 [6] [µM] | TGI [6] [µM] | TGI [7] [µM] | TGI [8] [µM] | TGI [9] [µM] | TGI [10] [µM] | TGI [11] [µM] | TGI [12] [µM]
Clc1cc(Cl)cc(N2N=C(c3cccc(Nc4ccncc4)c3)CC2c2ccccc2)c1 (stereo not given) | 1.49 | 3.07 | 1.67 | 3.16 | 1.81 | 3.91 | 1.8 | 3.37 | 1.79 | 3.6 | 13.1 | 31.9 |  |  |  |  |  | 
CC1CN=C(NCc2ccccc2)S1 (stereo not given) |  |  |  | > 100 |  | > 100 |  | > 100 |  | > 100 |  | > 100 | > 100 | > 100 | > 100 | > 100 | > 100 | 
CN(C)c1ccc(C2CC(=O)CC(c3ccc(N(C)C)cc3)C23C(=O)NC(=O)NC3=O)cc1 (stereo not given) |  | 19 |  | > 25 |  | > 25 |  | > 25 |  | > 25 |  |  | > 25 | > 25 |  | > 25 | > 25 | > 25
CC(SC1=CC(=O)c2c(Cl)ccc(O)c2C1=O)C(=O)O (stereo not given) |  | 38.6 |  | 37.7 |  |  |  | 69.4 |  |  |  |  | 41.1 |  |  | > 100 | 76.4 | 
c1ccc(C2=NN(c3ccccc3)C3(S2)SC(c2ccccc2)(c2ccccc2)c2ccccc23)cc1 (stereo not given) |  | > 100 |  | > 100 |  | > 100 |  | > 100 |  | > 100 |  | > 100 | > 100 | > 100 |  | > 100 | > 100 | > 100
CC(=O)Nc1ccc(-c2nnc(SCC(=O)Nc3ccccc3Cl)o2)cc1 |  |  |  | > 100 |  | > 100 |  | > 100 |  | > 100 |  | > 100 | > 100 | > 100 |  | > 100 |  | > 100
CCCOC(=O)c1cc(C(=CCC[C@H]2CC[C@@]3(C)[C@@H](CC[C@@H]4[C@@H]3CC[C@]3(C)[C@@H](C(C)CCCC(C)C)CC[C@@H]43)C2)c2cc(Cl)c(O)c(C(=O)OCCC)c2)cc(Cl)c1O (stereo not given in full) |  |  |  |  |  | > 50 |  | > 50 |  |  |  |  | > 50 | > 50 | > 50 | > 5 | > 50 | > 50
Cc1nc2ccccc2nc1NS(=O)(=O)c1ccc(N)cc1 |  | > 100 |  | > 100 |  | > 100 |  |  |  | > 100 |  |  | > 100 | > 100 |  | > 100 | > 100 | > 100
Cc1ccc(S(=O)(=O)N/N=C2\C(=O)C3CC2C(Cl)C3Cl)cc1 (stereo not given) |  | > 100 |  | > 100 |  | > 100 |  | > 100 |  |  |  | > 100 | > 100 | > 100 |  | > 100 | > 100 | > 100
NC(=S)N/N=C/c1cc(CN2CCOCC2)c(N)cn1 |  |  |  | > 100 |  | > 100 |  | > 100 |  |  |  | > 100 |  | > 100 | > 100 | > 100 | > 100 | > 100
O=S(=O)(CC1=NC2C=CC=CC2N=C1)NCc1ccccc1 (stereo not given) |  | > 100 |  | > 100 |  | > 100 |  | > 100 |  | > 100 |  | > 100 | > 100 | > 100 |  | > 100 | > 100 | > 100
